We go through one substance from article PMC9508239 (Nature Communications, 2022).

Data set [1] has as its system IR. Kind of data set: Insulin signaling in vivo, white adipose tissue (WAT). The settings on record: mouse epididymal WAT, vs vehicle. As to the method:
(§1) The cells were incubated with the lysis buffer B [50 mM Hepes pH 7.4, 150 mM NaCl, 10% Glycerol, 1% Triton X-100, 1 mM EDTA, 100 mM sodium fluoride, 2 mM sodium orthovanadate, 20 mM sodium pyrophosphate, 0.5 mM dithiothreitol (DTT), 2 mM phenylmethylsulfonyl fluoride (PMSF)] supplemented with cOmplete Protease Inhibitor Cocktail (Roche), PhosSTOP (Sigma), and 25 U/ml turbo nuclease (Accelagen) on ice for 1 h. After centrifuging at 20,817×g at 4 °C for 10 min, the concentrations of cell lysate were measured using Micro BCA Protein Assay Kit (Thermo Scientific). About 50–60 μg total proteins were analyzed by SDS-PAGE and quantitative Western blotting. […] For quantitative western blots, anti-rabbit immunoglobulin G (IgG) (H + L) (WB, 1:5000; Dylight 800 conjugates, Cat. #5151) and anti-mouse IgG (H + L) (WB, 1:5000; Dylight 680 conjugates, Cat. #5470) (Cell Signaling) were used as secondary antibodies. […]
Two to three months old male mice were fasted overnight. […] After centrifuging at 20,817×g at 4 °C for 30 min, the concentrations of cell lysate were measured using Micro BCA Protein Assay Kit (Thermo Scientific). The lysates were then analyzed by quantitative western blotting.

In a further data set the test system is IR R14W. Kind of data set: Auto-phosphorylation of IR in 293FT cells expressing IR R14W. The data set is classed as cell-based, human. How it is done:
(§2) For the activation assay, the short isoform of human IR in pCS2-MYC was used as described previously[20],[49]. Plasmid transfections into 293FT cells were performed with Lipofectamin^TM 2000 (Invitrogen).
as §1

In a further data set the test system is IR F701A/F705A. Kind of data set: Auto-phosphorylation of IR in 293FT cells expressing IR F701A/F705A. The data set is classed as cell-based, human. As to the method: as §2, §1
The test system of a further data set is IR F64A. Description: Auto-phosphorylation of IR in 293FT cells expressing IR F64A. The data set is classed as cell-based, human. As to conditions: 10 nM, 10 min. As to the method: as §2, §1
The subject of the next data set is IR F497A. Kind of data set: Auto-phosphorylation of IR in 293FT cells expressing IR F497A. The data set is classed as cell-based, human. How it is done:
as §2, §1

The subject of another data set is IR K484E/L552A. Kind of data set: Auto-phosphorylation of IR in 293FT cells expressing IR K484E/L552A. The data set is classed as cell-based, human. The settings on record: 10 nM, 10 min. How it is done: as §2, §1
A further data set has as its system IR-D707A. Description: IR signaling (pY IR, pAKT, pERK) in IR-D707A MEFs. The data set is classed as cell-based, mouse. How it is done:
(§3) IR^F/F mice (Jackson #006955[71]) were crossed with CAG-CRE/ERT mice (Jackson #004682) to generate IR^F/F; CRE-ERT mice. The IR^F/F; CRE-ERT mice were backcrossed nine generations to C57BL/6 (Jackson #000664). The MEFs from IR^F/F; CRE-ERT mice were isolated as described earlier with some modifications. E14.5 embryos were minced with sterile scalpels and incubated with 0.25% trypsin-EDTA for 10 min at 37 °C and a 5% CO2 incubator. Fresh 0.25% trypsin-EDTA was added. After 10 min incubation, cells were put into fresh DMEM containing supplemented 10% (v/v) FBS, 2 mM L-glutamine, 55 μM β-mercaptoethanol, and 1% penicillin/streptomycin, and then centrifuged at 290×g for 5 min. After the supernatant was removed, the cells were resuspended in the DMEM and incubated at 37 °C and 5% CO2 incubator. The medium was changed the next day to remove debris and floating cells.
Viral supernatants were collected at 2 days and 3 days after transfection, concentrated with a concentrator, and added to IR^F/F; CRE-ERT MEFs with 4 μg/ml of polybrene. Cells were selected with 2 μg/ml of puromycin 2 days after infection.
as §2
The cells were incubated with the lysis buffer B [50 mM Hepes pH 7.4, 150 mM NaCl, 10% Glycerol, 1% Triton X-100, 1 mM EDTA, 100 mM sodium fluoride, 2 mM sodium orthovanadate, 20 mM sodium pyrophosphate, 0.5 mM dithiothreitol (DTT), 2 mM phenylmethylsulfonyl fluoride (PMSF)] supplemented with cOmplete Protease Inhibitor Cocktail (Roche), PhosSTOP (Sigma), and 25 U/ml turbo nuclease (Accelagen) on ice for 1 h. After centrifuging at 20,817×g at 4 °C for 10 min, the concentrations of cell lysate were measured using Micro BCA Protein Assay Kit (Thermo Scientific). About 50–60 μg total proteins were analyzed by SDS-PAGE and quantitative Western blotting. The following antibodies were purchased from commercial sources: Anti-IR-pY1150/1151 (WB, 1:1000; 19H6; labeled as pY IR, Cat. #3024), anti-AKT (WB, 1:1000; 40D4, Cat. #2920), anti-pS473 AKT (WB, 1:1000; D9E, Cat. #4060), anti-ERK1/2 (WB, 1:1000; L34F12, Cat. #4696), anti-pERK1/2 (WB, […]; 197G2, Cat. #4377), anti-IRS1-pS616 (WB, 1:1000; C15H5, Cell Signaling, Cat. #3203); anti-IRS1 (WB, 1:1000; A301-158A, Bethyl Laboratory); anti-IR (WB, 1:500, CT-3, Santa Cruz; labeled as IR for primary hepatocytes and MEFs, Cat. #sc-57342); anti-IR (WB, 1:1000; EPR23566-103; labeled as IR for Fig. S10, ab278100, Abcam); anti-Myc (WB, 1:2000; 9E10, Cat. #11667149001, Roche; labeled as IR for 293FT cells). For quantitative western blots, anti-rabbit immunoglobulin G (IgG) (H + L) (WB, 1:5000; Dylight 800 conjugates, Cat. #5151) and anti-mouse IgG (H + L) (WB, 1:5000; Dylight 680 conjugates, Cat. #5470) (Cell Signaling) were used as secondary antibodies. The membranes were scanned with the Odyssey Infrared Imaging System (Li-COR, Lincoln, NE).

The next data set relates to IR D707A. Description: Auto-phosphorylation of IR in 293FT cells expressing IR D707A. The data set is classed as cell-based, human. As to the method: as §2, §1
Another data set deals with endogenous murine IR. Description: IR signaling (pY IR, pAKT, pERK) in GFP MEFs, tamoxifen-inducible IR knockout (Fig. S8). The data set is classed as cell-based, mouse. The settings on record: tamoxifen treatment, high concentration of insulin. How it is done:
as §3, with “After the supernatant was removed, the cells were resuspended in the DMEM and incubated at 37 °C and 5% CO2 incubator. The medium was changed the next day to remove debris and floating cells.” left out
The cells were incubated with the lysis buffer B [50 mM Hepes pH 7.4, 150 mM NaCl, 10% Glycerol, 1% Triton X-100, 1 mM EDTA, 100 mM sodium fluoride, 2 mM sodium orthovanadate, 20 mM sodium pyrophosphate, 0.5 mM dithiothreitol (DTT), 2 mM phenylmethylsulfonyl fluoride (PMSF)] supplemented with cOmplete Protease Inhibitor Cocktail (Roche), PhosSTOP (Sigma), and 25 U/ml turbo nuclease (Accelagen) on ice for 1 h. After centrifuging at 20,817×g at 4 °C for 10 min, the concentrations of cell lysate were measured using Micro BCA Protein Assay Kit (Thermo Scientific). About 50–60 μg total proteins were analyzed by SDS-PAGE and quantitative Western blotting. […]

The next data set concerns IR R345A. Description: Auto-phosphorylation of IR in 293FT cells expressing IR R345A. The data set is classed as cell-based, human. How it is done: as §2, §1
In data set [2] the test system is IR. Kind of data set: IR signaling (pY IR, pAKT, pERK) in primary mouse hepatocytes (Fig. S9). The data set is classed as cell-based. How it is done: Primary hepatocytes were isolated from 2-month-old male mice with a standard two-step collagenase perfusion procedure as described earlier with some modifications[24],[48],[49]. […] After 1–2 s upon the appearance of white spots in the liver, we cut the portal vein with scissors to wash out blood, and then the liver was perfused with 30 ml of Liver Digest Medium (Thermo Scientific, Cat. #17703034). The dissected liver was gently washed with low-glucose DMEM and transferred to a sterile culture dish containing 15 ml Liver Digest Medium. The isolated liver cells were filtered through the 70 μm cell strainer into a 50 ml tube. After centrifuging at 50×g for 5 min at 4 °C, cells were washed with cold low-glucose DMEM three times. […] After 2 h, the medium was changed to serum-free low-glucose DMEM.
as §1

The next data set concerns IR E697A. Kind of data set: Auto-phosphorylation of IR in 293FT cells expressing IR E697A. The data set is classed as cell-based, human. As to the method: as §2, §1

“insulin: native IR ligand used as comparator; Humulin in the in vivo tests”: the “pAKT, WAT” value with IR [1] is recorded as “significantly increased pAKT levels”. Moreover, the “pERK, WAT” value in the data set on IR [1] is on record as “neither insulin nor S597 had a statistically significant effect on pERK levels”. Moreover, the IR activation entry in the data set with IR R14W was “reduced insulin-dependent IR activation”; with IR F701A/F705A it was “reduced insulin-dependent IR activation”; in the data set with IR F64A, “defective insulin-dependent activation”; in the data set with IR F497A, “can be activated by insulin but with lesser efficiency than IR WT”; with IR K484E/L552A, “could not be activated efficiently”; with IR D707A it was “reduced insulin-dependent IR activation”. In addition, the IR activation result with IR R345A and in the data set with IR E697A was “largely diminished IR activation by insulin” in each case. Moreover, the “phosphorylation of AKT” value in the data set with IR-D707A is “greatly reduced”. Also, in the data set on IR-D707A, the “phosphorylation of ERK” value was “greatly reduced”. Besides, the “phosphorylation of IR” value in the data set on IR-D707A is reported as “remarkedly reduced”. The pAKT entry in the data set on IR-D707A (high concentration of insulin) is “significantly increased pAKT and pERK”. Also, the pERK entry in the data set on IR-D707A (high concentration of insulin) was “significantly increased pAKT and pERK”. In the data set on endogenous murine IR, the “downstream signaling through residual IR” value is “could activate downstream signaling”. Moreover, the “phosphorylation of AKT, primary hepatocytes” value in the data set with IR [2] is “increased the levels of pY IR, pAKT, and pERK similarly”. In addition, in the data set on IR [2], the “phosphorylation of ERK, primary hepatocytes” value was “increased the levels of pY IR, pAKT, and pERK similarly”. The “phosphorylation of IR, primary hepatocytes” value in the data set with IR [2] is “increased the levels of pY IR, pAKT, and pERK similarly”.
